The assay deals with actomyosin-7a (acto•M7a) (Homo sapiens, UniProt Q13402). The assay can be described thus: biochemical.

In paper PMC3249170 (Cellular and Molecular Life Sciences: CMLS, 2011) one finds Kd data, which are given here for 1 compound.

What is called Kd is the constant that tells how readily two partners part at equilibrium. Low readings indicate a tighter complex, high ones a looser complex.

Chain of actomyosin-7a (acto•M7a) (Q13402 whole entry, looked up): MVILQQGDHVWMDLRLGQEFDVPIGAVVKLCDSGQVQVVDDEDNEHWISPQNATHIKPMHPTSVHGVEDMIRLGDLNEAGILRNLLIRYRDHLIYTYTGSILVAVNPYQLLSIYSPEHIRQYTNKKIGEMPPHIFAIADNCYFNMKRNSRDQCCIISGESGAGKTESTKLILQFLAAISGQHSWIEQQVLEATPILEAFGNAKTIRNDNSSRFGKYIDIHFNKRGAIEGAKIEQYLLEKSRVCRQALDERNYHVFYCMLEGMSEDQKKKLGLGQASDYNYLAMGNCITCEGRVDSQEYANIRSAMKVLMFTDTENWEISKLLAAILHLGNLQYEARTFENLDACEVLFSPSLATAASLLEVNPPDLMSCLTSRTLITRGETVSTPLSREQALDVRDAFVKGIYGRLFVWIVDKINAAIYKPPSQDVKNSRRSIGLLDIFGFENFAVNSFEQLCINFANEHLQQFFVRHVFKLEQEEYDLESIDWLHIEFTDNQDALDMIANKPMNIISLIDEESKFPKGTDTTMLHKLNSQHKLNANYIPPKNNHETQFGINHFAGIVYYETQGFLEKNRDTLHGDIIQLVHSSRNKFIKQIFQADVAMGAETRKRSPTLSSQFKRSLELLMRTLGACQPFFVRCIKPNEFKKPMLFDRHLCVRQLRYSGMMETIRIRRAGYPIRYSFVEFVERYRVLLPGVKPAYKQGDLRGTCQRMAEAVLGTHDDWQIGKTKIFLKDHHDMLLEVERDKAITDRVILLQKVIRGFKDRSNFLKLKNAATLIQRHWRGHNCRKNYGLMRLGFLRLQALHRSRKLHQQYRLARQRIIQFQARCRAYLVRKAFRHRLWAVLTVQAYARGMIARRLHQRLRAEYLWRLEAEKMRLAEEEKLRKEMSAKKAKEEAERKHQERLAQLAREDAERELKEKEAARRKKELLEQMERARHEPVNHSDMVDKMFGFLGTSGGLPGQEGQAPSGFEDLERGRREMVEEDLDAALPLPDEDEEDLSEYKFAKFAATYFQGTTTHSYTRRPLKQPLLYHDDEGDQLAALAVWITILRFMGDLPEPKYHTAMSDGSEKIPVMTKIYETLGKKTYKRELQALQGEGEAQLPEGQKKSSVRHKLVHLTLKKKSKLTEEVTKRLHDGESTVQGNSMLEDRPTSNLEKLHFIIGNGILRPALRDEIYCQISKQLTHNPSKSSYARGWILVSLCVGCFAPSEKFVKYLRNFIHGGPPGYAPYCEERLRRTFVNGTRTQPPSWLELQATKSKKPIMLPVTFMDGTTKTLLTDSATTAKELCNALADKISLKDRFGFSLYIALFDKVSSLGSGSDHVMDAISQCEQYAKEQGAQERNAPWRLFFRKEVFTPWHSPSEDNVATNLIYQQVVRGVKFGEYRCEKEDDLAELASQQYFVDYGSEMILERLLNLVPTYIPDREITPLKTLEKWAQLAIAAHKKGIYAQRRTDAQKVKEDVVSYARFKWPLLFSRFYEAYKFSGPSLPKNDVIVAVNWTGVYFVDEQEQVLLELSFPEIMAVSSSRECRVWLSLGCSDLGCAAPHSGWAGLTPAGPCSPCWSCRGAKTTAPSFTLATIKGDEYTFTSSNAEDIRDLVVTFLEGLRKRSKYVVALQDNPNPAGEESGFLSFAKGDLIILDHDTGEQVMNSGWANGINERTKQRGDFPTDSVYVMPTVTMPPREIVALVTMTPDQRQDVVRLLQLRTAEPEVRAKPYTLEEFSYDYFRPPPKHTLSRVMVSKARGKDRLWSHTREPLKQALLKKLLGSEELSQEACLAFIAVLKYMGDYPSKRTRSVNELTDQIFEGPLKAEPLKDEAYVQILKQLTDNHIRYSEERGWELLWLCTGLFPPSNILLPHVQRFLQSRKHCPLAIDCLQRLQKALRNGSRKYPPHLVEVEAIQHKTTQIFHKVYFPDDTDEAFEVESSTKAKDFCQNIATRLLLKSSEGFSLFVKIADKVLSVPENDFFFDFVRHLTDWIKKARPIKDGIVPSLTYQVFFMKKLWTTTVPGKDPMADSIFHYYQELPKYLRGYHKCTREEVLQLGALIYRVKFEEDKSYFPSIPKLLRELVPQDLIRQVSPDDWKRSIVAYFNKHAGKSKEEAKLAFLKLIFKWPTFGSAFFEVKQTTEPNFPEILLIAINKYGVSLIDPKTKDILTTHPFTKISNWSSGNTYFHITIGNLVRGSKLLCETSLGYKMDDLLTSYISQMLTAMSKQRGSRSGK

In turn, `Nc1ncnc2c1ncn2[C@@H]1O[C@H](COP(=O)(O)OP(=O)(O)OP(=O)(O)O)[C@@H](O)[C@H]1O` [ATP] gave a Kd of 681.2 ± 5.63 µM.
